Each structure is given as a SMILES string.

By EC50 is commonly meant the concentration that produces a half-maximal response.

For the first experiment, the target named is T1, Nuclear receptor ROR-gamma (Homo sapiens, UniProt P51449).
T1 sequence (P51449 whole entry): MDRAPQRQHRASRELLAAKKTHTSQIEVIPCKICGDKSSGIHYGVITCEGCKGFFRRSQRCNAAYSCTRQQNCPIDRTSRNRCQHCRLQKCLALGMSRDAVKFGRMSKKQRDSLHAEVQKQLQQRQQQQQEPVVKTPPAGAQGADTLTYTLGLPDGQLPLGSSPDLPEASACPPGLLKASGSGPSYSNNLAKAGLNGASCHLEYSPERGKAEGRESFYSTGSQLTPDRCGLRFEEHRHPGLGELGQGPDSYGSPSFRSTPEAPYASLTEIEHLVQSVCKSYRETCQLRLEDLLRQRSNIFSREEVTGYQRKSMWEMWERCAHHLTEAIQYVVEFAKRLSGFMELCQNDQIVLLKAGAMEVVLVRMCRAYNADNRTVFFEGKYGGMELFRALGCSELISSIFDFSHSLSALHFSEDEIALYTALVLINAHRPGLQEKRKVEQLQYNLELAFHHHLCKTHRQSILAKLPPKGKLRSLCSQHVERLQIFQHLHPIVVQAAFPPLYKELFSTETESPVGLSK
Description: Agonist activity at APC-labeled RORgammat LBD (unknown origin) incubated for 1 hr in presence of europium labeled co-activator SRC1 by dual FRET assay.
Conditions: not given
Turning to `CCCN(Cc1ccc(NC(=O)Cc2ccc(S(=O)(=O)CC)cc2)cc1)CC1CC1`, the EC50 was 6530 nM.

Regarding `CCCN(Cc1ccc(NC(=O)Cc2ccc(S(=O)(=O)CC)cc2)cc1)Cc1ccccc1F`, the concentration giving a half-maximal response (EC50) was found to be 9.4 nM.

Turning to `CCCN(Cc1ccc(NC(=O)Cc2ccc(S(=O)(=O)CC)cc2)cc1)Cc1ccccc1C`, the 50% effective concentration (EC50) came out at 11.6 nM.

Turning to `CCS(=O)(=O)c1ccc(CC(=O)Nc2ccc(CN(C)Cc3ccccc3)cc2)cc1`, the half-maximal effective concentration (EC50) was 101 nM.

For the compound `CCCN(Cc1ccccc1)Cc1ccc(NC(=O)Cc2ccc(S(C)(=O)=O)cc2)cc1`, the EC50 is 43.1 nM.

Take `CCCN(Cc1ccccc1)Cc1ccc(NC(=O)NCc2ccc(S(=O)(=O)CC)cc2)cc1`: the concentration giving a half-maximal response (EC50) came to 58 nM.

For `CCCN(Cc1ccccc1)Cc1ccc(NCCc2ccc(S(=O)(=O)CC)cc2)cc1`, the concentration for a half-maximal effect (EC50) was 33.6 nM.

Turning to `CCCN(Cc1ccc(NC(=O)Cc2ccc(S(=O)(=O)CC)cc2)cc1)Cc1ccccc1Cl`, the concentration for a half-maximal effect (EC50) is 16.9 nM.

Regarding `CCCN(Cc1ccccc1)Cc1ccc(NC(=O)Cc2ccccc2)cc1`, the EC50 was 2170 nM.

As for `CCCN(Cc1ccccc1)Cc1ccc(C(=O)NCc2ccc(S(=O)(=O)CC)cc2)cc1`, the EC50 came to 9.2 nM.

Turning to `CCN(Cc1ccccc1)Cc1ccc(NC(=O)Cc2ccc(S(=O)(=O)CC)cc2)cc1`, the half-maximal effective concentration (EC50) came to 36.3 nM.

In the case of `CCCN(Cc1ccccc1)Cc1c(Cl)cc(NC(=O)Cc2ccc(S(=O)(=O)CC)cc2)cc1Cl`, the EC50 was 8.2 nM.

As to `CCCN(Cc1ccc(NC(=O)Cc2ccc(S(=O)(=O)CC)cc2)cc1)Cc1cccnc1`, the EC50 was 40.2 nM.

Regarding `CCCN(Cc1ccc(NC(=O)Cc2ccc(S(=O)(=O)CC)cc2)cc1)CC1CCCC1`, the EC50 is 109 nM.

Take `CCCN(Cc1ccccc1)Cc1ccc(NC(=O)Cc2ccc(C#N)cc2)cc1`: the half-maximal effective concentration (EC50) amounted to 346 nM.

Consider `CCCN(CCc1ccccc1)c1ccc(NC(=O)Cc2ccc(S(=O)(=O)CC)cc2)cc1`, for which the EC50 worked out at 11.6 nM.

Consider `CCS(=O)(=O)c1ccc(CC(=O)Nc2ccc(CN(Cc3ccccc3)CC3CCC3)cc2)cc1`, for which the EC50 was found to be 7.1 nM.

In the case of `CCCN(Cc1ccccc1)Cc1ccc(NC(=O)Cc2ccc(S(=O)(=O)CC)cn2)cc1`, the EC50 was 7100 nM.

For `CCCN(Cc1ccc(NC(=O)Cc2ccc(S(=O)(=O)CC)cc2)cc1)CC1CCOCC1`, the EC50 was 86.2 nM.

With `CCCN(Cc1ccc(NC(=O)Cc2ccc(S(=O)(=O)CC)cc2)cc1)Cc1nccs1`, the EC50 was over 30000 nM.

For `CCCN(Cc1ccccc1)Cc1ccc(NC(=O)Cc2ccc(S(=O)(=O)CC)cc2)cc1Cl`, the EC50 came to 8.7 nM.

Turning to `CCCN(Cc1ccc(NC(=O)Cc2ccc(S(=O)(=O)CC)cc2)cc1)CC1CCCO1` (stereo unspecified), the EC50 was determined as 285 nM.

As for `CCS(=O)(=O)c1ccc(CC(=O)Nc2ccc(CN(Cc3ccccc3)CC3CC3)cc2)cc1`, the EC50 was 14 nM.

Take `CCCN(Cc1ccccc1)Cc1ccc(NC(=O)Cc2ccc(C(=O)O)cc2)cc1`: the EC50 was over 30000 nM.

For `CCS(=O)(=O)c1ccc(CC(=O)Nc2ccc(NCCc3ccccc3)cc2)cc1`, the EC50 stood at 55.2 nM.

In the case of `CCS(=O)(=O)c1ccc(CC(=O)Nc2ccc(CN(Cc3ccccc3)CC3CC3)c(Cl)c2)cc1`, the EC50 was 8 nM.

For `CCCCN(Cc1ccccc1)Cc1ccc(NC(=O)Cc2ccc(S(=O)(=O)CC)cc2)cc1`, the concentration giving a half-maximal response (EC50) is 11.1 nM.

As to `CCCN(Cc1ccc(NC(=O)Cc2ccc(S(=O)(=O)CC)cc2)cc1)Cc1cccs1`, the EC50 came to 29.1 nM.

`CCCN(Cc1ccc(Cl)cc1)Cc1ccc(NC(=O)Cc2ccc(S(=O)(=O)CC)cc2)cc1`: the concentration giving a half-maximal response (EC50) turned out to be 16.8 nM.

Regarding `CCCN(Cc1ccc(NC(=O)Cc2ccc(S(=O)(=O)CC)cc2)cc1)CC1CCC(F)(F)CC1`, the EC50 amounted to 79.6 nM.

Turning to `CCCN(Cc1ccc(NC(=O)Cc2ccc(S(=O)(=O)CC)cc2)cc1)CC1CCC1`, the EC50 is 291 nM.

With `CCS(=O)(=O)c1ccc(CC(=O)Nc2ccc(CNCc3ccccc3)cc2)cc1`, the concentration for a half-maximal effect (EC50) was over 30000 nM.

Another experiment addresses T1, Nuclear receptor ROR-gamma. The experiment can be described thus: Agonist activity at human RORgammat LBD expressed in HEK293T cells assessed as increase in Gal4 reporter gene transcription measured after 16 to 20 hrs by luciferase reporter gene assay. It is filed as cell-based.
Conditions: not given
On the technique in general: A reporter such as luciferase makes a cellular process visible.
For the compound `CCCN(Cc1c(Cl)cc(NC(=O)Cc2ccc(S(C)(=O)=O)cc2)cc1Cl)CC1CCCCC1`, the EC50 turned out to be 382 nM.

With `CCCN(Cc1ccc(NC(=O)Cc2ccc(S(C)(=O)=O)cc2)cc1)CC1CCCCC1`, the EC50 is 277 nM.

On to `CCCN(Cc1ccc(NC(=O)Cc2ccc(S(C)(=O)=O)cc2)cc1Cl)CC1CCCCC1`, for which the half-maximal effective concentration (EC50) was 283 nM.

For the next experiment, the target named is T2, Nuclear receptor ROR-gamma (Mus musculus) (UniProt P51450).
T2 sequence (whole entry): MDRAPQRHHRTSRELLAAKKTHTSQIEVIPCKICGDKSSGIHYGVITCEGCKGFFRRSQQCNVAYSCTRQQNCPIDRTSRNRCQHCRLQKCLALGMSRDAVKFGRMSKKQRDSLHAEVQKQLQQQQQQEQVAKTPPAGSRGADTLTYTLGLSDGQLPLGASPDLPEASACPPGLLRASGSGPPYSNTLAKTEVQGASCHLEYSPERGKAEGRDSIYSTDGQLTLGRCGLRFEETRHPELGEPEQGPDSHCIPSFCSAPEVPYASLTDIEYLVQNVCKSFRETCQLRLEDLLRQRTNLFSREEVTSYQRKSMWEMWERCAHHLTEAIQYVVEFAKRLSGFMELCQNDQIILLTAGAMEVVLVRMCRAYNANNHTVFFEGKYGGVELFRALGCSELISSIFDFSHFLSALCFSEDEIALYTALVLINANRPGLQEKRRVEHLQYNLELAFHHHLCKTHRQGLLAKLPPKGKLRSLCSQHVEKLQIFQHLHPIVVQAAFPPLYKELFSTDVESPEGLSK
Description: Agonist activity at RORgammat in mouse CD4+ T cells assessed as induction of Th17 cells differentiation by measuring increase in IL17 production at 250 nM measured after 4 days by intracellular staining based flow cytometry (reference value: 16.5 %). The class given is cell-based. As to conditions: CD4+ve Th, time 4.0 day. For orientation: Flow cytometry measures light scatter and fluorescence of single cells or particles in a stream.
In the case of `CCCN(Cc1ccc(NC(=O)Cc2ccc(S(C)(=O)=O)cc2)cc1Cl)CC1CCCCC1`, the Activity is 21.9%.
